# Experimental data taken from paper PMC9250534, “Synthesis and direct assay of large macrocycle diversities by combinatorial late-stage modification at picomole scale” (Nature Communications, 2022).
# Numbered stars: 1 amine (or outer) side, 2 acyl side, 3 side chain; on linkers, the order of the positions; unused ones are H or OH. Bridge positions count the residues as written; N and C are the ends. Square brackets hold non-standard residues; d marks the D form. Peptide text beside a SMILES is read from it. * marks the point of attachment. ξ: configuration not given here. ξPro(4-NHCO(5-Cl-2-thienyl)) = O=C(NC1CNC(C(=O)O)C1)c1ccc(Cl)s1; ξPro(4ξ-NHCOC6H4-4-Cl) = O=C(NC1CNC(C(=O)O)C1)c1ccc(Cl)cc1; 2Thenoyl(5-Cl) = O=C(c1ccc(Cl)s1)*; Benzoyl(4-Cl) = O=C(c1ccc(Cl)cc1)*; Cysteamide = C(CS[*:3])N[*:1]; X1 = O=C(/C=C/c1ccccc1)*; Api = NC1(C(=O)O)CCNCC1; Dap = NC[C@H](N)C(=O)O; Mpa = O=C(O)CCS
# Molecular target: MDM2 (Homo sapiens, UniProt Q00987)
# Sequence (Q00987 whole entry): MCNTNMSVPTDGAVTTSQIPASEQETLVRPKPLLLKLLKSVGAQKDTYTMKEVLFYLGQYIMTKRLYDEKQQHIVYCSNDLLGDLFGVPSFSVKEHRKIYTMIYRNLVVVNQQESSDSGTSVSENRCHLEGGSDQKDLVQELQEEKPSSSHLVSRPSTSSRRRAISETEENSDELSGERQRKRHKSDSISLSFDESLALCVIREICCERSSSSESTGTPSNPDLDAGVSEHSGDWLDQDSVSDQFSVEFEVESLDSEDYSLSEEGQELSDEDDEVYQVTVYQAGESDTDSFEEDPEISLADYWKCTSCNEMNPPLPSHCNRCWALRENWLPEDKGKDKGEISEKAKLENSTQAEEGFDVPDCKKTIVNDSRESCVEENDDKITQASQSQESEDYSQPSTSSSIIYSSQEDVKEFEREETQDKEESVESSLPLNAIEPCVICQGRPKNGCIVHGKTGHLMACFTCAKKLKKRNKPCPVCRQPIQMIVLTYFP
# Experiment: MDM2 binding screen: displacement of fluorescent p53 peptide probe FP53 (fluorescence polarization)
# Conditions: crude macrocycle reactions; for fraction fluorescent probe displaced, Screen: initial screen
# Method in brief: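 Macrocycle reaction products at a final 10 µM were tested for displacement of a p53-based fluorescent peptide from human MDM2. Fluorescence anisotropy (ex 485/em 535 nm) was read once per macrocycle at 25 °C.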
Structure (SMILES),"fraction fluorescent probe displaced, Screen (Acid 14)","fraction fluorescent probe displaced, Replicate (Acid 14)","fraction fluorescent probe displaced, Screen (Acid 25)","fraction fluorescent probe displaced, Replicate (Acid 25)",other results
O=C1CCSSCCNC(=O)c2cccc(c2)CNC(=O)C2(CCN(C(=O)c3ccc(Cl)s3)CC2)NC(=O)[C@H](Cc2ccccc2)N1 [X F D6 B5 Acid 14],0.053,0.0211,–,–,–
O=C1CCSSCCNC(=O)c2cccc(c2)CNC(=O)C2(CCN(C(=O)c3ccc(Cl)cc3)CC2)NC(=O)C(Cc2ccccc2)N1 (stereo not shown) [X F D6 B5 Acid 25],–,–,-0.00813,0.12,–
O=C1CCSSCCNC(=O)c2cccc(c2)CNC(=O)C2(CCN(C(=O)/C=C/c3ccccc3)CC2)NC(=O)[C@H](Cc2ccccc2)N1 [X F D6 B5 Acid 91],–,–,–,–,"fraction fluorescent probe displaced, Screen (Acid 91): -0.0241; fraction fluorescent probe displaced, Replicate (Acid 91): -0.0333"
O=C1CCNC(=O)C2CN(C(=O)c3ccc(Cl)cc3)CCN2C(=O)C(Cc2ccccc2)NC(=O)CCSSCCN1 (stereo not shown) [X F D7 B2 Acid 25],–,–,-0.07,0.10,–
O=C1CCSSCCNC(=O)C2CCCN(C2)C(=O)C2CN(C(=O)c3ccc(Cl)s3)CCN2C(=O)C(Cc2ccccc2)N1 (stereo not shown) [X F D7 B4 Acid 14],-0.00483,0.12,–,–,–
O=C(/C=C/c1ccccc1)NC[C@@H]1NC(=O)[C@@H]2CCCN2C(=O)[C@H](Cc2c[nH]c3ccccc23)NC(=O)CCSSCCNC1=O [X W B1 D3 Acid 91] ([Mpa]WP[Dap](X1)-Cysteamide; disulfide 1-C),–,–,–,–,"fraction fluorescent probe displaced, Screen (Acid 91): 0.19; fraction fluorescent probe displaced, Replicate (Acid 91): 0.12"
O=C1CCSSCCNC(=O)C2(CCN(C(=O)c3ccc(Cl)s3)CC2)NC(=O)[C@@H]2CCCN2C(=O)[C@H](Cc2c[nH]c3ccccc23)N1 [X W B1 D6 Acid 14] ([Mpa]WP[Api](2Thenoyl(5-Cl))-Cysteamide; disulfide 1-C),0.08,-0.00432,–,–,–
O=C(/C=C/c1ccccc1)NC[C@@H]1NC(=O)CCNC(=O)[C@H](Cc2c[nH]c3ccccc23)NC(=O)CCSSCCNC1=O [X W B2 D3 Acid 91],–,–,–,–,"fraction fluorescent probe displaced, Screen (Acid 91): 0.08; fraction fluorescent probe displaced, Replicate (Acid 91): 0.09"
O=C1CCSSCCNC(=O)C2(CCN(C(=O)c3ccc(Cl)s3)CC2)NC(=O)CCNC(=O)[C@H](Cc2c[nH]c3ccccc23)N1 [X W B2 D6 Acid 14],0.20,-0.00432,–,–,–
O=C1CCSSCCNC(=O)C2(CCN(C(=O)/C=C/c3ccccc3)CC2)NC(=O)CCNC(=O)[C@H](Cc2c[nH]c3ccccc23)N1 [X W B2 D6 Acid 91],–,–,–,–,"fraction fluorescent probe displaced, Screen (Acid 91): 0.22; fraction fluorescent probe displaced, Replicate (Acid 91): 0.09"
O=C1CCSSCCNC(=O)C2CC(NC(=O)c3ccc(Cl)s3)CN2C(=O)C2CCCN(C2)C(=O)C(Cc2c[nH]c3ccccc23)N1 (stereo not shown) [X W B4 D5 Acid 14],0.23,0.35,–,–,–
O=C(C=Cc1ccccc1)NC1CC2C(=O)NCCSSCCC(=O)NC(Cc3c[nH]c4ccccc34)C(=O)N3CCCC(C3)C(=O)N2C1 (stereo not shown) [X W B4 D5 Acid 91],–,–,–,–,"fraction fluorescent probe displaced, Screen (Acid 91): 0.30; fraction fluorescent probe displaced, Replicate (Acid 91): 0.22"
O=C1CCSSCCNC(=O)C2(CCN(C(=O)c3ccc(Cl)s3)CC2)NC(=O)[C@H]2CCCN(C2)C(=O)[C@H](Cc2c[nH]c3ccccc23)N1 [X W B4 D6 Acid 14],0.17,0.33,–,–,–
O=C1CCSSCCNC(=O)C2CN(C(=O)c3ccc(Cl)s3)CCN2C(=O)C2CCCN(C2)C(=O)C(Cc2c[nH]c3ccccc23)N1 (stereo not shown) [X W B4 D7 Acid 14],0.34,0.33,–,–,–

# Now from value to compound, other results behind:
"fraction fluorescent probe displaced, Screen (Acid 14)","fraction fluorescent probe displaced, Replicate (Acid 14)","fraction fluorescent probe displaced, Screen (Acid 25)","fraction fluorescent probe displaced, Replicate (Acid 25)",Structure (SMILES),other results
0.14,0.22,–,–,O=C1CCSSCCNC(=O)[C@H](CNC(=O)c2ccc(Cl)s2)NC(=O)[C@@H]2CCCN2C(=O)[C@H](Cc2c[nH]c3ccccc23)N1 [X W B1 D3 Acid 14] ([Mpa]WP[Dap](2Thenoyl(5-Cl))-Cysteamide; disulfide 1-C),–
–,–,0.28,0.17,O=C1CCSSCCNC(=O)[C@H](CNC(=O)c2ccc(Cl)cc2)NC(=O)[C@@H]2CCCN2C(=O)[C@H](Cc2c[nH]c3ccccc23)N1 [X W B1 D3 Acid 25] ([Mpa]WP[Dap](Benzoyl(4-Cl))-Cysteamide; disulfide 1-C),–
0.0241,0.17,–,–,O=C1CCSSCCNC(=O)C2CC(NC(=O)c3ccc(Cl)s3)CN2C(=O)C2CCCN2C(=O)C(Cc2c[nH]c3ccccc23)N1 (stereo not shown) [X W B1 D5 Acid 14] ([Mpa]WP[ξPro(4-NHCO(5-Cl-2-thienyl))]-Cysteamide; disulfide 1-C; configuration not given here),–
–,–,0.15,0.17,O=C1CCSSCCNC(=O)C2CC(NC(=O)c3ccc(Cl)cc3)CN2C(=O)C2CCCN2C(=O)C(Cc2c[nH]c3ccccc23)N1 (stereo not shown) [X W B1 D5 Acid 25] ([Mpa]WP[ξPro(4ξ-NHCOC6H4-4-Cl)]-Cysteamide; disulfide 1-C; configuration not given here),–
–,–,0.19,0.07,O=C1CCSSCCNC(=O)C2(CCN(C(=O)c3ccc(Cl)cc3)CC2)NC(=O)C2CCCN2C(=O)C(Cc2c[nH]c3ccccc23)N1 (stereo not shown) [X W B1 D6 Acid 25] ([Mpa]WP[Api](Benzoyl(4-Cl))-Cysteamide; disulfide 1-C; configuration not given here),–
–,–,0.19,0.17,O=C1CCSSCCNC(=O)C2CN(C(=O)c3ccc(Cl)cc3)CCN2C(=O)C2CCCN2C(=O)C(Cc2c[nH]c3ccccc23)N1 (stereo not shown) [X W B1 D7 Acid 25],–
0.23,0.35,–,–,O=C1CCNC(=O)[C@H](Cc2c[nH]c3ccccc23)NC(=O)CCSSCCNC(=O)[C@H](CNC(=O)c2ccc(Cl)s2)N1 [X W B2 D3 Acid 14],–
–,–,0.28,0.22,O=C1CCNC(=O)[C@H](Cc2c[nH]c3ccccc23)NC(=O)CCSSCCNC(=O)[C@H](CNC(=O)c2ccc(Cl)cc2)N1 [X W B2 D3 Acid 25],–
–,–,0.09,0.0465,O=C1CCSSCCNC(=O)C2(CCN(C(=O)c3ccc(Cl)cc3)CC2)NC(=O)CCNC(=O)[C@H](Cc2c[nH]c3ccccc23)N1 [X W B2 D6 Acid 25],–
–,–,0.25,0.30,O=C1CCSSCCNC(=O)[C@H](CNC(=O)c2ccc(Cl)cc2)NC(=O)[C@H]2CCCN(C2)C(=O)[C@H](Cc2c[nH]c3ccccc23)N1 [X W B4 D3 Acid 25],–
–,–,0.25,0.12,O=C1CCSSCCNC(=O)C2(CCN(C(=O)c3ccc(Cl)cc3)CC2)NC(=O)[C@H]2CCCN(C2)C(=O)[C@H](Cc2c[nH]c3ccccc23)N1 [X W B4 D6 Acid 25],–
0.20,0.30,–,–,O=C1CCSSCCNC(=O)[C@H](CNC(=O)c2ccc(Cl)s2)NC(=O)c2cccc(c2)CNC(=O)[C@H](Cc2c[nH]c3ccccc23)N1 [X W B5 D3 Acid 14],–
